2 compounds from ChEMBL document CHEMBL2203135, “Novel progesterone receptor modulators: 4-aryl-phenylsulfonamides” (Bioorg Med Chem Lett, 2012) can be followed below.

Assay [1] addresses T1, Androgen receptor (Homo sapiens, UniProt P10275).
T1 sequence (P10275 whole entry): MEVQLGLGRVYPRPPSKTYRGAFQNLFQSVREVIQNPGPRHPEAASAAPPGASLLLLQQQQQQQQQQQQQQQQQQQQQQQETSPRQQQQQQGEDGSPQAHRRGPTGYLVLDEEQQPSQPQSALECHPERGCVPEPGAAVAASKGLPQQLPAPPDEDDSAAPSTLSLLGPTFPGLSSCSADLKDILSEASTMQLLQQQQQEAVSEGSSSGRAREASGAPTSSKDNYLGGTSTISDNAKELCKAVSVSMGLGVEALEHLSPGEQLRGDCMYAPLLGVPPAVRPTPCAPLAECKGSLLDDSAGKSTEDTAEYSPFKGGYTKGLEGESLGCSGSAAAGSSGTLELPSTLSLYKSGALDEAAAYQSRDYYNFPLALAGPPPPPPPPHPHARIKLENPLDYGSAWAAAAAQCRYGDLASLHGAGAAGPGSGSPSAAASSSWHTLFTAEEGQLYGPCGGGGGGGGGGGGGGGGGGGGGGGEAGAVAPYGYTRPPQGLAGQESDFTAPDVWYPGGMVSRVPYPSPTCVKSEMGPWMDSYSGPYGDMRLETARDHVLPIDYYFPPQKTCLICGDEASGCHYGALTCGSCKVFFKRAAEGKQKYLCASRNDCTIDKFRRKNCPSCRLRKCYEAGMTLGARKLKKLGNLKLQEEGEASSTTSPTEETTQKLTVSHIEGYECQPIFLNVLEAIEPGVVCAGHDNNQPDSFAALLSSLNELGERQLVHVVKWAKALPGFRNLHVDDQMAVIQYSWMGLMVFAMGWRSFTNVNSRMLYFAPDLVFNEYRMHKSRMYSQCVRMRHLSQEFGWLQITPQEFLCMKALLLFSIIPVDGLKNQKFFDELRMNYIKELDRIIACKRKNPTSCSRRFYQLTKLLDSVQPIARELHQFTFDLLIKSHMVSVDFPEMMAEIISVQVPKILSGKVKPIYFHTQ
The experiment in a line: Antagonist activity at androgen receptor by cellular reporter gene assay. It is filed as functional.

Assay [2] addresses T2, Estrogen receptor (Homo sapiens) (UniProt P03372).
T2 sequence (whole entry): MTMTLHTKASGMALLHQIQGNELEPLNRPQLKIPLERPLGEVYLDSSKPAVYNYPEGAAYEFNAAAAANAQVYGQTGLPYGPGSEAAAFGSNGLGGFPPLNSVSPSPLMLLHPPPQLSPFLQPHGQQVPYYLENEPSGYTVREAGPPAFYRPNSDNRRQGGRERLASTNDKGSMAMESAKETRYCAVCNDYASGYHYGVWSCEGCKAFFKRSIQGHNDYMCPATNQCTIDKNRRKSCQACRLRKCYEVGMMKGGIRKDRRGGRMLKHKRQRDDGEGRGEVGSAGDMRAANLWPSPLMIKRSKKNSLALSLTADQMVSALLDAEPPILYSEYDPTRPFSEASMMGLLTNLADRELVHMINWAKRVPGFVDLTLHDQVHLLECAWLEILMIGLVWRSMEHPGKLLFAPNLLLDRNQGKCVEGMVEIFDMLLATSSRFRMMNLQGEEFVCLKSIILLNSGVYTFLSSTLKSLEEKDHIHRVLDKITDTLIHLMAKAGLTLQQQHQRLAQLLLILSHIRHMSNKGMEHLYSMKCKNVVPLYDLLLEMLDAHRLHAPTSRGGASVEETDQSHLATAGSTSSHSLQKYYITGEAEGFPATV
Nature of the assay: Agonist activity at estrogen receptor by cellular reporter gene assay. Type of assay: functional. In general terms: A reporter such as luciferase makes a cellular process visible.

Assay [3] deals with T3, Progesterone receptor (Homo sapiens, UniProt P06401).
T3 sequence (P06401 whole entry): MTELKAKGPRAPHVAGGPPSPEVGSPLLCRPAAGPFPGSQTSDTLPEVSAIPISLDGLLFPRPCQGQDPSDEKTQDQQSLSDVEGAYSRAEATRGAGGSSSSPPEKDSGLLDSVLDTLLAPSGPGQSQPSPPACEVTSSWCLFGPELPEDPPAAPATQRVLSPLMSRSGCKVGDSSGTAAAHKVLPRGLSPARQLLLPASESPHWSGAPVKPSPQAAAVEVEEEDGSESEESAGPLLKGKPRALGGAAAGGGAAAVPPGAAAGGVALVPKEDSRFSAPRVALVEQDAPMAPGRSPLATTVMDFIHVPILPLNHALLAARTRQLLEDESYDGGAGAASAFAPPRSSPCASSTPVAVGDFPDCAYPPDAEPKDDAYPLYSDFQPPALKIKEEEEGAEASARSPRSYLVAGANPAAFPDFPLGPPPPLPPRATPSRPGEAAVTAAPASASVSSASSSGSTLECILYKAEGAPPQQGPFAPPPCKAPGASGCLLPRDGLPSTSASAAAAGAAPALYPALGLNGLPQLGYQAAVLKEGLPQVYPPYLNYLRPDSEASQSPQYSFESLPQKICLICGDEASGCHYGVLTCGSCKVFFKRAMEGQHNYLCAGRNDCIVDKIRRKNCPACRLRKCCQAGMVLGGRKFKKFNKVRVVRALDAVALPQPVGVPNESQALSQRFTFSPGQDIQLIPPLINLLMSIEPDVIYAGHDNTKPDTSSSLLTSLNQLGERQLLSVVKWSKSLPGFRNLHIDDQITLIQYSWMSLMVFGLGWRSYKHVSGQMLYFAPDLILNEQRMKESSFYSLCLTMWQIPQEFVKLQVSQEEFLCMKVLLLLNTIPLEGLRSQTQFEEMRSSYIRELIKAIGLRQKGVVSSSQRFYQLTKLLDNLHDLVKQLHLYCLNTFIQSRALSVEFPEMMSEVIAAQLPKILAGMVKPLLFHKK
Nature of the assay: Antagonist activity against progesterone receptor in human T47D cells by alkaline phosphatase assay. It is filed as functional, cell-based.

Assay [4] concerns the target T3, Progesterone receptor. The experiment in a line: Antagonist activity at progesterone receptor by cellular reporter gene assay. It is filed as functional.
The target in assay [5] is T4, Androgen receptor (Homo sapiens) (UniProt P10275).
T4 sequence (whole entry): T1 sequence (P10275 whole entry)
Nature of the assay: Agonist activity at androgen receptor by cellular reporter gene assay. Type of assay: functional.

Active and inactive are the calls of the source. No cut-off for these calls is given here.

The term IC50 denotes the midpoint of a concentration-inhibition curve. A high value points to lower potency. As for `CCS(=O)(=O)Nc1cc(F)c(-c2ccc(C#N)n2C)c(F)c1`, the IC50 is 100 nM in assay [1], 12 nM in assay [3] and 11.7 nM in assay [4]. Also, the outcome in assay [2] and in assay [5] was inactive.
As for `COC[C@]1(OC)CC[C@H]2[C@@H]3CCC4=CC(=O)CCC4=C3[C@@H](c3ccc(/C=N/O)cc3)C[C@@]21C` [ASOPRISNIL], the IC50 in assay [1] was 9 nM; in assay [3], 0.3 nM; in assay [4], 0.3 nM. Further, the result in assay [2] and in assay [5] was inactive.
